The record followed here is ChEMBL document CHEMBL1201862, “PubChem BioAssay data set” (2004).

The source made the active and inactive calls.

For test [1], the target named is T1, Sphingosine 1-phosphate receptor 4 (Homo sapiens, UniProt O95977).
T1 sequence (O95977 whole entry): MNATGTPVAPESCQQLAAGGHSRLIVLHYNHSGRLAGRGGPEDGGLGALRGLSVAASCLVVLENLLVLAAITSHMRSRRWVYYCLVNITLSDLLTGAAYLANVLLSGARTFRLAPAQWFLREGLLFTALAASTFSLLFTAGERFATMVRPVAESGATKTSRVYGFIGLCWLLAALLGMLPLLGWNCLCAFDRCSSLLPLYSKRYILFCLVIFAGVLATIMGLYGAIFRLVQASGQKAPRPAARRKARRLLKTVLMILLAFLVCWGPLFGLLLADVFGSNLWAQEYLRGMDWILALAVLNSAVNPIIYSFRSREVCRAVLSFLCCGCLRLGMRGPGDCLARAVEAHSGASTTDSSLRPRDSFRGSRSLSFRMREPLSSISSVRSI
Description: Fluorescence dose response cell-based high throughput screening assay for antagonists of the Sphingosine 1-Phosphate Receptor 4 (S1P4). [Related pubchem assays: 1524 (Confirmation in triplicates.), 1510 (Primary screen.)]. Format: functional.

Test [2] addresses Sphingosine 1-phosphate receptor 1 (Homo sapiens, UniProt P21453). The test is classed as functional.
Test [3] deals with Vero. Description: cells. Format: functional, cell-based. The conditions noted are these: Chlorocebus sabaeus.
In test [4] the test system is Vero. Description: cells. The following applies: Chlorocebus sabaeus. The test is classed as functional.
The target in test [5] is Luciferin 4-monooxygenase (Photinus pyralis, UniProt P08659). Description: Counter Screen for Luciferase-based Assay Positives. [Related pubchem assays: 620, 618, 411 ].
Luciferin 4-monooxygenase, sequence (P08659 whole entry): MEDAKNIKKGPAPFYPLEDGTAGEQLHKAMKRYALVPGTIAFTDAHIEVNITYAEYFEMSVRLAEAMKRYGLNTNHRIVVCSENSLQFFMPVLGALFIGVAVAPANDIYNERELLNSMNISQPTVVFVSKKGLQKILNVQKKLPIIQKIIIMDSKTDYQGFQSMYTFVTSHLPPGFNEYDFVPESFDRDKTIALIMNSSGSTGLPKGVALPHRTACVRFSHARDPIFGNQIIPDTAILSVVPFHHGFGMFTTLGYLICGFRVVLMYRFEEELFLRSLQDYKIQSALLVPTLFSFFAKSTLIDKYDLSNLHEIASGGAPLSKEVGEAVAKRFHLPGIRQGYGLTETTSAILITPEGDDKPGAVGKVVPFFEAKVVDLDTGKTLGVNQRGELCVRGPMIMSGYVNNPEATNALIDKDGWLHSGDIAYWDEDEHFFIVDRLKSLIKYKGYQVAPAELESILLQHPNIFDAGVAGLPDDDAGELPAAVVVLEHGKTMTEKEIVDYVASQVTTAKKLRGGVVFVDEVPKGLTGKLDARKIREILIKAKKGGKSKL
The next test concerns HT-1080. Description: HT1080 cell viability loss – fluorescence readout (AID 620). Format: functional, cell-based. The conditions noted are these: Homo sapiens.
The target in test [6] is Epstein-Barr nuclear antigen 1 (Epstein-Barr virus (strain B95-8) (HHV-4) (Human herpesvirus 4), UniProt P03211). Description: inhibition of EBV nuclear antigen 1 DNA binding – biochemical, fluorescence polarization, 1536-well, dose response (AID 2381).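 Note: fluorescence polarization of a Cy5 DNA probe bound by EBNA-1 protein.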 Set-up: species or system human gammaherpesvirus 4. (Polarisation of emitted light reports the rotation of a fluorescent probe.)
Epstein-Barr nuclear antigen 1, sequence (P03211 whole entry): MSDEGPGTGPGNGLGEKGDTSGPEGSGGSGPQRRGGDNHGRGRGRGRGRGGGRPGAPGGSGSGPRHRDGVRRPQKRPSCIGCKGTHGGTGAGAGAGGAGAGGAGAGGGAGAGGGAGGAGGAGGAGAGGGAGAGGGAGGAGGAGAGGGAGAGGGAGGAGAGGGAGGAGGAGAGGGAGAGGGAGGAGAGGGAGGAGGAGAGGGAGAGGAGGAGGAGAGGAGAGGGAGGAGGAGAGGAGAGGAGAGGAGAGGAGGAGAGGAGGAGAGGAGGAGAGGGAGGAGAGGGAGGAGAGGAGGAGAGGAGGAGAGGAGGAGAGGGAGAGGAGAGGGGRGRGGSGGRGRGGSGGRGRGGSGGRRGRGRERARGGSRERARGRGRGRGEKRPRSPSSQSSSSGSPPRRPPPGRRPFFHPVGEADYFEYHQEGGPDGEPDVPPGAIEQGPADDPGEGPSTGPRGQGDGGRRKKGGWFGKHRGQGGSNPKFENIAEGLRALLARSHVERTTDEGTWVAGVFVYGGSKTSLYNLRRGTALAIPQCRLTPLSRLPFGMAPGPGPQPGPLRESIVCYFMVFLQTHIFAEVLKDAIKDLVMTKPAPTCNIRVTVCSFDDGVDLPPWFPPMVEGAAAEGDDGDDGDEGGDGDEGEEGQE

In test [7] the target is Lytic switch protein BZLF1 (Epstein-Barr virus (strain B95-8) (HHV-4) (Human herpesvirus 4), UniProt P03206). Description: inhibition of BZLF1 ZTA DNA binding – biochemical, fluorescence polarization, Epstein-Barr virus, 1536-well, counter-screen for EBNA-1 inhibitor project, dose response (AID 2377).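 Note: fluorescence polarization of Cy5-labelled ZRE DNA probe bound by purified Zta.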 Set-up: species or system human gammaherpesvirus 4.
Lytic switch protein BZLF1, sequence (P03206 whole entry): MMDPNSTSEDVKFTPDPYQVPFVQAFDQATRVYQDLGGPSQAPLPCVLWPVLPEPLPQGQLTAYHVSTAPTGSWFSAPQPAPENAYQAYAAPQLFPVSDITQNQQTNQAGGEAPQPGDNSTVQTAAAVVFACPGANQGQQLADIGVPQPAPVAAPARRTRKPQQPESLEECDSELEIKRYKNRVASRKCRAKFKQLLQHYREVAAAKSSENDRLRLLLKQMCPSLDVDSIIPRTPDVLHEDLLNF
Test [8] deals with T2, E3 ubiquitin-protein ligase XIAP (Homo sapiens, UniProt P98170). Description: Counter Screen using XIAP-Bir3 for Chemical Antagonists of Bir1/2 domains of IAP-family anti-apoptotic proteins. [Related pubchem assays (depositor defined):AID1018, AID1449, AID1514, AID1638, AID1749, AID1750, AID488957, AID488963]. For orientation: Counterscreens check selectivity or assay interference.
T2 sequence (P98170 whole entry): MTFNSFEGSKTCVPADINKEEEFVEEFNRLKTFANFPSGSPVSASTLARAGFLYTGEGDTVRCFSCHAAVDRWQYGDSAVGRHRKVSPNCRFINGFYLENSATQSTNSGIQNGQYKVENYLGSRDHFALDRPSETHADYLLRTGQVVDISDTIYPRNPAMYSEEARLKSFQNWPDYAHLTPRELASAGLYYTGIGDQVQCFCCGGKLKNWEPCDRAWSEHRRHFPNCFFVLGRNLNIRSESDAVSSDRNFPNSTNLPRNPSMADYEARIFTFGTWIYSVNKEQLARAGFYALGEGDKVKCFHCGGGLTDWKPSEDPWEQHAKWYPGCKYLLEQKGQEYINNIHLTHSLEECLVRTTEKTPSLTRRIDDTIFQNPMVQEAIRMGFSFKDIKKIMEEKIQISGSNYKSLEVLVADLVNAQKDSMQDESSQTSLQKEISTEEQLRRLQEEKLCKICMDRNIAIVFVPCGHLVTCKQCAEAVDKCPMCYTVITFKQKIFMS

For test [9], the target named is T2, E3 ubiquitin-protein ligase XIAP. Description: small molecules displacing peptide from XIAP – biochemical, IAP family, fluorescence polarization (AID 1018). Format: functional.
A further test has as its target T3, Estrogen receptor (Homo sapiens, UniProt P03372).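 Note: potency for inhibiting coactivator peptide recruitment to the receptor.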
T3 sequence (P03372 whole entry): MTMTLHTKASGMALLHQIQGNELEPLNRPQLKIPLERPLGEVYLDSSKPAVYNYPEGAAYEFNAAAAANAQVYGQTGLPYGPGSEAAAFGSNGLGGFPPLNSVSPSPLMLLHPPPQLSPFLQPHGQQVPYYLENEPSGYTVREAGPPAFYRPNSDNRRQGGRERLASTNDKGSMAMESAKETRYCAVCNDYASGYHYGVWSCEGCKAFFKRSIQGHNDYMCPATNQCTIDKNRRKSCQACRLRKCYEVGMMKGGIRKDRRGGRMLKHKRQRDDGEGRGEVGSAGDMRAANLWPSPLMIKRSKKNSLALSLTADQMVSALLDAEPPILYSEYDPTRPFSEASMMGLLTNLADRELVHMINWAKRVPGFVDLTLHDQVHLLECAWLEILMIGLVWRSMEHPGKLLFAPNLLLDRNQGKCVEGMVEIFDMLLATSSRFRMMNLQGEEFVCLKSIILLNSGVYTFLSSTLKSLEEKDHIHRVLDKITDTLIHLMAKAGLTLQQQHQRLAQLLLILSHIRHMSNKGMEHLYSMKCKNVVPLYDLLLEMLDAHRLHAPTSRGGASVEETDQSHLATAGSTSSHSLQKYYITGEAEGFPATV

Sphingosine 1-phosphate receptor 1, sequence (P21453 whole entry): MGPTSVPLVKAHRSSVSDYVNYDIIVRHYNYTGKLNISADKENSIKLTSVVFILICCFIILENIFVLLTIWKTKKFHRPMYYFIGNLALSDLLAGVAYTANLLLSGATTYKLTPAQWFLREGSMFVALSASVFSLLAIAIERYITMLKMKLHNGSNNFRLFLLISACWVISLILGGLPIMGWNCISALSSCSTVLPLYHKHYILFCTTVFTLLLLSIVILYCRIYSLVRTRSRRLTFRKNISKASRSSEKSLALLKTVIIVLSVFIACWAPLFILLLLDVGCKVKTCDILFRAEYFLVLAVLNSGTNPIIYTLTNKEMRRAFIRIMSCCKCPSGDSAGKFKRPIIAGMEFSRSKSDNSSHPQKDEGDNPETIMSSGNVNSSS

`O=C(/C=C/c1ccccc1)CC(O)(c1ccccc1)C(F)(F)F` (stereo not drawn): the IC50 in [1] was 1.97 µM (active); in test [2], 25.9 µM (not active); in the test with Vero [3], > 25 µM (active). Also, the cytotoxic concentration (CC50) in the test with Vero [4] is 13.6 µM (active).
In the case of `Fc1ccccc1OCCSc1nnnn1-c1ccccc1`, the values for the EC50 (in test [5]; with HT-1080) were 3.32 µM (active) and > 50 µM (not active), respectively.
On to `COc1ccc(C(=O)CSc2nnc(NC(=O)C3CC(=O)N(c4cccc(OC)c4)C3)s2)cc1` (stereo not drawn), for which the IC50 in test [6] was 5.9 µM (active); in [7] it was > 111 µM (not active).
With `Cc1sc2nc(CN(C(=O)NC3CCCCC3)C3CCCCC3)nc(O)c2c1C`, the IC50 in test [8] was > 100 µM (inactive); in [9], > 100 µM (not active).
For `CCOC(=O)C1=C(Nc2ccc(C)cc2)S/C(=C\c2cn(CC(=O)NCC3CCCO3)c3ccccc23)C1=O` (stereo not drawn), on Estrogen receptor, the IC50 is 7.6 µM (active).
For `O=C(COC(=O)/C=C/c1ccccc1)Nc1cc(C(F)(F)F)ccc1N1CCOCC1`, the results for the IC50 in [6] and in test [7] were 7.3 µM (active) and > 111 µM (not active), respectively.

What is called IC50 is the concentration that gives 50% inhibition. As a reminder, the CC50 is the concentration giving 50% cytotoxicity. As usually defined, the EC50 is the midpoint of the concentration-response curve.
